Assay results as given in PMC11240878, “Synthesis, enzyme inhibition assay, and molecular modeling study of novel pyrazolines linked to 4-methylsulfonylphenyl scaffold: antitumor activity and cell cycle analysis” (RSC Advances, 2024).

Key:
CCRF-CEM = test: NCI single-dose GI%, leukemia; assay type: cell-based, human; details: 10.0 μM in one dose
HL-60(TB) = test: NCI single-dose GI%, leukemia; assay type: cell-based, human; details: 10.0 μM in one dose
K-562 = test: NCI single-dose GI%, leukemia; assay type: cell-based, human; details: K-562, leukemia; 10.0 μM in one dose
RPMI-8226 = test: NCI single-dose GI%, leukemia; assay type: cell-based, human; details: RPMI-8226, leukemia; 10.0 μM in one dose
SR = test: NCI single-dose GI%, leukemia; assay type: cell-based, human; details: 10.0 μM in one dose
A549/ATCC = test: NCI single-dose GI%, NSC lung; assay type: cell-based, human; details: 10.0 μM in one dose
NCI-H226 = test: NCI single-dose GI%, NSC lung; assay type: cell-based, human; details: 10.0 μM in one dose
NCI-H23 = test: NCI single-dose GI%, NSC lung; assay type: cell-based, human; details: 10.0 μM in one dose
NCI-H322M = test: NCI single-dose GI%, NSC lung; assay type: cell-based, human; details: 10.0 μM in one dose
NCI-H460 = test: NCI single-dose GI%, NSC lung; assay type: cell-based, human; details: 10.0 μM in one dose
HCT-116 = test: NCI single-dose GI%, colon; assay type: cell-based, human; details: HCT-116, colon; 10.0 μM in one dose
HCT-15 = test: NCI single-dose GI%, colon; assay type: cell-based, human; details: HCT-15, colon; 10.0 μM in one dose
KM12 = test: NCI single-dose GI%, colon; assay type: cell-based, human; details: 10.0 μM in one dose
SF-268 = test: NCI single-dose GI%, CNS; assay type: cell-based, human; details: SF-268, CNS; 10.0 μM in one dose
SF-295 = test: NCI single-dose GI%, CNS; assay type: cell-based, human; details: SF-295, CNS; 10.0 μM in one dose
SNB-19 = test: NCI single-dose GI%, CNS; assay type: cell-based, human; details: SNB-19, CNS; 10.0 μM in one dose
LOX IMVI = test: NCI single-dose GI%, melanoma; assay type: cell-based, human; details: 10.0 μM in one dose
MALME-3M = test: NCI single-dose GI%, melanoma; assay type: cell-based, human; details: 10.0 μM in one dose
M14 = test: NCI single-dose GI%, melanoma; assay type: cell-based, human; details: 10.0 μM in one dose
SK-MEL-2 = test: NCI single-dose GI%, melanoma; assay type: cell-based, human; details: SK-MEL-2, melanoma; 10.0 μM in one dose
SK-MEL-28 = test: NCI single-dose GI%, melanoma; assay type: cell-based, human; details: SK-MEL-28, melanoma; 10.0 μM in one dose
SK-MEL-5 = test: NCI single-dose GI%, melanoma; assay type: cell-based, human; details: SK-MEL-5, melanoma; 10.0 μM in one dose
UACC-62 = test: NCI single-dose GI%, melanoma; assay type: cell-based, human; details: UACC-62, melanoma; 10.0 μM in one dose
IGROV1 = test: NCI single-dose GI%, ovarian; assay type: cell-based, human; details: 10.0 μM in one dose
OVCAR-3 = test: NCI single-dose GI%, ovarian; assay type: cell-based, human; details: OVCAR-3, ovarian; 10.0 μM in one dose
OVCAR-4 = test: NCI single-dose GI%, ovarian; assay type: cell-based, human; details: OVCAR-4, ovarian; 10.0 μM in one dose
OVCAR-8 = test: NCI single-dose GI%, ovarian; assay type: cell-based, human; details: OVCAR-8, ovarian; 10.0 μM in one dose
NCI/ADR-RES = test: NCI single-dose GI%, ovarian; assay type: cell-based, human; details: 10.0 μM in one dose
786-0 = test: NCI single-dose GI%, renal; assay type: cell-based, human; details: 786-0, renal; 10.0 μM in one dose
ACHN = test: NCI single-dose GI%, renal; assay type: cell-based, human; details: 10.0 μM in one dose
TK-10 = test: NCI single-dose GI%, renal; assay type: cell-based, human; details: TK-10, renal; 10.0 μM in one dose
UO-31 = test: NCI single-dose GI%, renal; assay type: cell-based, human; details: UO-31, renal; 10.0 μM in one dose
PC-3 = test: NCI single-dose GI%, prostate; assay type: cell-based, human; details: PC-3, prostate; 10.0 μM in one dose
MDA-MB-231/ATCC = test: NCI single-dose GI%, breast; assay type: cell-based, human; details: 10.0 μM in one dose
BT-549 = test: NCI single-dose GI%, breast; assay type: cell-based, human; details: BT-549, breast; 10.0 μM in one dose
MDA-MB-468 = test: NCI single-dose GI%, breast; assay type: cell-based, human; details: MDA-MB-468, breast; 10.0 μM in one dose
[1] = tested on: caspase-9 in MDA-MB-231 cells; test: Apoptotic markers assay, caspase-9; assay type: cell-based, human; details: at IC50 concentration, vs untreated control
Protocol: The levels of Bax (apoptosis promoter), Bcl-2 (apoptosis inhibitor), and apoptosis coordination enzymes (caspase-3 and caspase-9) were measured.[78–80]
Apoptotic markers experiment was performed according to reported procedure using MDA-MB-231 cancer cell line.[78–80]

[2] = tested on: breast adenocarcinoma MCF-7; details: human, 48 h
EGFR = EGFR (Homo sapiens, UniProt P00533); test: EGFR tyrosine kinase inhibition assay
Sequence of EGFR (P00533 25-1210): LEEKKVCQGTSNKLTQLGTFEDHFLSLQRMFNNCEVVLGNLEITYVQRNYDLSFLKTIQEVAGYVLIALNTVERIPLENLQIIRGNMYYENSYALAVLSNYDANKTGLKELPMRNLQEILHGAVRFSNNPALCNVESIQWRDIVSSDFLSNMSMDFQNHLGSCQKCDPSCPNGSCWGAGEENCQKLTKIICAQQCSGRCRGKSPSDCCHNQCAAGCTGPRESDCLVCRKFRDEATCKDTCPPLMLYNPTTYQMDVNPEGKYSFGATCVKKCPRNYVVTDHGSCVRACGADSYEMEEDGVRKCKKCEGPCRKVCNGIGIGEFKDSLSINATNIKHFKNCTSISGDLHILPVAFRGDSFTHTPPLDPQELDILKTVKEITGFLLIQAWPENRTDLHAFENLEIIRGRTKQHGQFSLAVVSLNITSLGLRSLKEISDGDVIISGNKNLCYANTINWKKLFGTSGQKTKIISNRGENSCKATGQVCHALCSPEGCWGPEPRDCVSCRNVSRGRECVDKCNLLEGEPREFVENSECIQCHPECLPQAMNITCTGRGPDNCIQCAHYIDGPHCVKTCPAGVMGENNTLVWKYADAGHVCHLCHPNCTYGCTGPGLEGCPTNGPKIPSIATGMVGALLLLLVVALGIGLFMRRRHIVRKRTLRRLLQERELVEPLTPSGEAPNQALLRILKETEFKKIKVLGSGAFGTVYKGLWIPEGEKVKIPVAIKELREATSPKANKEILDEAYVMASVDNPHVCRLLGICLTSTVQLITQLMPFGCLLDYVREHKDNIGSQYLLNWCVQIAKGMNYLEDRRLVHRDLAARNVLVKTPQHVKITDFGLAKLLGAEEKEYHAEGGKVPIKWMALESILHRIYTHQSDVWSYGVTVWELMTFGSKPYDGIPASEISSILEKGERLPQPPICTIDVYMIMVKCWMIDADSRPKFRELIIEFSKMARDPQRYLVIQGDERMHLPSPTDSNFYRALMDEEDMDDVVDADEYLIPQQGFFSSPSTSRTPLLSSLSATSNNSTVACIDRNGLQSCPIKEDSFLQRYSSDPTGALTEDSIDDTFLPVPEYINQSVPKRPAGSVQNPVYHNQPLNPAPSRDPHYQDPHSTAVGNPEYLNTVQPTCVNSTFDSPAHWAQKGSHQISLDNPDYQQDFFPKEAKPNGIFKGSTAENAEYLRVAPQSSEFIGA

SW-620 = test: NCI single-dose GI%, colon; assay type: cell-based, human; details: SW-620, colon; 10.0 μM in one dose
SNB-75 = test: NCI single-dose GI%, CNS; assay type: cell-based, human; details: SNB-75, CNS; 10.0 μM in one dose
MDA-MB-435 = test: NCI single-dose GI%, melanoma; assay type: cell-based, human; details: MDA-MB-435, melanoma; 10.0 μM in one dose
HS 578T = test: NCI single-dose GI%, breast; assay type: cell-based, human; details: 10.0 μM in one dose

Structure (SMILES) | GI% (HL-60(TB)) [%] | GI% (K-562) [%] | GI% (RPMI-8226) [%] | GI% (SR) [%] | GI% (A549/ATCC) [%] | GI% (NCI-H23) [%] | GI% (NCI-H322M) [%] | GI% (NCI-H460) [%] | GI% (HCT-116) [%] | GI% (HCT-15) [%] | GI% (KM12) [%] | GI% (SF-268) [%] | GI% (SF-295) [%] | GI% (SNB-19) [%] | GI% (LOX IMVI) [%] | GI% (UO-31) [%] | GI% (PC-3) [%] | GI% (BT-549) [%] | Casp9 gene expression (fold change) [1] [fold change] | IC50 (EGFR) [nM] | other results
CS(=O)(=O)c1ccc(C(=O)N2N=C(c3ccccc3)CC2c2ccccc2O)cc1 (stereo not drawn) [Compound 18h, (5-(2-Hydroxyphenyl)-3-phenyl-4,5-dihydro-1H-pyrazol-1-yl)(4-(methylsulfonyl)phenyl)methanone] | 73 | 55 | 16 | 30 | 45 | 12 | 48 | 54 | 35 | 56 | 21 | 39 | 23 | 17 | 34 | 47 | 21 | 19 | 2.799 | 574 ± 19 | GI% (CCRF-CEM): 41%; GI% (NCI-H226): 15%; GI% (MALME-3M): 21%; GI% (M14): 29%; GI% (SK-MEL-2): 28%; GI% (SK-MEL-28): 11%; GI% (SK-MEL-5): 38%; GI% (UACC-62): 12%; GI% (IGROV1): 28%; GI% (OVCAR-3): 35%; GI% (OVCAR-4): 22%; GI% (OVCAR-8): 41%; GI% (NCI/ADR-RES): 22%; GI% (786-0): 33%; GI% (ACHN): 25%; GI% (TK-10): 25%; GI% (MDA-MB-231/ATCC): 32%; GI% (MDA-MB-468): 17%; IC50 [2]: 12500 ± 550 nM
Cc1ccc(C2=NN(C(=O)c3ccc(S(C)(=O)=O)cc3)C(c3ccc(C)cc3)C2)cc1 (stereo not drawn) [Compound 18g, (3,5-Bis(4-tolyl)-4,5-dihydro-1H-pyrazol-1-yl)(4-(methylsulfonyl)phenyl)methanone] | 66 | 80 |  | 50 | 43 | 12 | 12 | 17 | 37 | 45 | 37 | 11 | 30 | 13 | 16 | 26 | 33 | 27 | 4.386 | 1020 ± 34 | GI% (SW-620): 25%; GI% (SNB-75): 30%; GI% (MALME-3M): 14%; GI% (M14): 32%; GI% (MDA-MB-435): 76%; GI% (SK-MEL-2): 33%; GI% (SK-MEL-28): 23%; GI% (SK-MEL-5): 38%; GI% (UACC-62): 36%; GI% (IGROV1): 23%; GI% (OVCAR-3): 24%; GI% (OVCAR-4): 22%; GI% (NCI/ADR-RES): 38%; GI% (786-0): 22%; GI% (ACHN): 12%; GI% (MDA-MB-231/ATCC): 14%; GI% (HS 578T): 15%; GI% (MDA-MB-468): 45%
CS(=O)(=O)c1ccc(C(=O)N2N=C(c3ccccc3)CC2c2ccc(F)cc2)cc1 (stereo not drawn) [Compound 18c, (5-(4-Fluorophenyl)-3-phenyl-4,5-dihydro-1H-pyrazol-1-yl)(4-(methylsulfonyl)phenyl)methanone] | 46 | 33 | 20 |  | 32 |  |  |  |  |  |  |  |  |  |  | 20 | 17 | 14 | 5.158 | 1120 ± 37 | GI% (SNB-75): 14%; GI% (OVCAR-8): 20%
